Holding throughout (assay type): cell-based
The target of experiment [1] is T1, estrogen receptor-alpha (ERα) (Homo sapiens (Human), UniProt P03372). As to the kind of experiment: Estrogen receptor-alpha (ERα) degradation assay in T47D cells. The conditions noted are these: % degraded, 5 day incubation, read-out: ER Degradation Dmax.
Experiment [2] deals with estrogen receptor. As to the kind of experiment: ERE luciferase assay in T47D-KBluc cells. The note with it: Homo sapiens, 24 hours, read-out: ER Target Engagement IC50. Here is the method:
1. ERE Luciferase Assay for Compounds in Table 2
T47D-1(Bluc cells (ATCC® ECRL 2 65, T47D human breast cancer cells stably transfected with estrogen responsive element/promoter/luciferase reporter gene) were seeded into 96-well white opaque plates in IR: PM growth medium supplemented with 10% fetal bovine serum (FBS) and allowed to adhere overnight in a 37° C. humidified incubator. The following day, cells were treated with PROTACs in a 12-point concentration curve (top final concentration of 300 nM with subsequent concentrations being 3-fold less with […] being the lowest concentration in the assay). Each PROTAC was tested independently in two experiments on 96-well plates. After 24 hours, media was removed and lysis buffer was added to the wells. Following lysis, Bright-Glo™ Luciferase Assay Substrate (Promega, Madison WI) was added and the luciferase activity was measured using a Cytation 3 plate reader (BioTek™, Winooski, VT). Each compound was assayed in duplicate and the activity was calculated as […] using GraphPad Prism software (San Diego, CA).

The target of experiment [3] is T1, estrogen receptor-alpha (ERα). Kind of experiment: Estrogen receptor-alpha (ERα) degradation assay in MCF7 cells (In-Cell Western / western blot). The conditions noted are these: % degraded, read-out: ER Degradation Dmax. Here is the method:
2. Estrogen Receptor-Alpha (ERα) Degradation Assay in MCF-7 Cells Using Western Blot Method for Table 5
The exemplary novel ERα degraders were assessed for their activity in degrading ERα in MCF-7 cells via western blot. The assay was carried out in the presence of 10% FBS or high percentage of human or mouse serum. Protocols of the western blot assay are described below.
MCF7 cells were grown in DMEM/F12 with 10% FBS and seeded at 24,000 cells per well in 100 μl into 96-well clear tissue culture plates. The following day, the cells were treated with PROTACs in a […] concentration curve with 100 nM being the top concentration and serial dilutions to make the other concentrations (30 nM, 10 nM. 3 nM, 1 nM, and 0.3 nM). At all concentrations, 0.01% DMSO is the final concentration in the well. The following day, the plates are aspirated, washed with 50 μl of cold PBS. The cells are lysed with 50 μl/well 4° C. Cell Lysis Buffer (Catalog #9803; Cell Signaling Technology, Danvers, MA) (20 mM Tris-HCL (pH 7.5), 150 mM NaCl, 1 mM Na2EDTA, 1 mM EGTA, 1% Triton, 2.5 mM sodium pyrophosphate, 1 mM B-glycerophosphate, 1 mM sodium vanadate, 1 μg/ml leupeptin). Lysates were clarified at 16,000× g for 10 minutes, and 2 μg of protein was subjected to SDS-PAGE analysis and followed by immunoblotting according to standard protocols. The antibodies used were ERα (Cell Signaling, Technologies Catalog #8644), and Tubulin (Sigma Catalog #T9026; St. Louis, MO). Detection reagents were Clarity Western ECL substrate (Bio-Rad Catalog 4170-5060; Hercules, CA).
Alternatively, MCF7 cells were grown in DMEM/F12 with 10% FBS and seeded at 24,000 cells per well in 500 μl in 24-well clear tissue culture plates. The following day, the cells were treated with PROTACs in a 5-point concentration curve (100 nM, 33 nM, 11 nM, 3.7 nM, and 1.2 nM) in the presence of 0.01% DMSO. After 72 hours, the wells are aspirated and washed with 500 μl of PBS. The cells are lysed with 100 μl/well 4° C. Cell Lysis Buffer (Catalog #9803; Cell Signaling Technology, Danvers, MA) (20 mM Tris-HCL (pH 7.5), 150 mM NaCl, 1 mM Na2EDTA, 1 mM EGTA, 1% Triton, 2.5 mM sodium pyrophosphate, 1 mM B-glycerophosphate, 1 mM sodium vanadate, 1 ug/ml leupeptin). Lysates were clarified at 16,000× g for 10 minutes, and 2 μg of protein was subjected to SDS-PAGE analysis and followed by immunoblotting according to standard protocols. The antibodies used were ERα (Cell Signaling Technologies Catalog #8644), and Tubulin (Sigma Catalog #T9026; St. Louis, MO). Detection reagents were Clarity Western ECL substrate (Bio-Rad Catalog 4170-5060; Hercules, CA).
3. Estrogen receptor-alpha (ERα) degradation assay using In-Cell Western™ Assay for Table 5
Degradation of ERα by claimed compounds were determined in MCF7 cells using an In-Cell Western™ assay. Briefly, MCF7 cells were plated in 96-well plates (2000 cells per well in 100 μl media) and incubated at 37° C. under an atmosphere of 5% CO2 in a humidified incubator overnight. One-hundred (100) μl of media containing test compound (at 2× concentration) was added to the appropriate wells to provide 11 serially decreasing concentrations (top final concentration, 1 μM then 3-fold less for the next 10 concentrations); a vehicle control (DMSO) was also added for each compound. For each experiment, all compounds were assayed in duplicate plates. Cells were then incubated for 3 or 5 days in the above-mentioned environment. The assay was terminated by removal of media, a single wash with ice-cold PBS and the addition of […] paraformaldehyde (PFA: 4% in PBS). After 15 minutes in PFA at room temperature, the cells were permeabilized in Tris-phosphate-buffered saline with Tween (0.1%) (TBST) supplemented with Triton X-100 (0.5%) for 15 minutes. Cells were then blocked in BSA (TBST with BSA, 3%) for one hour. […] The cells were incubated overnight at 4° C. […]
For orientation: Immunoblotting shows a protein as a band on a membrane.

A word on the Dmax: it is the largest share of the target that was removed. For orientation: IC50 means the concentration at which inhibition is half-maximal.

Molecules are shown by their SMILES. Some results are limits rather than exact numbers.

T1 sequence (P03372 whole entry): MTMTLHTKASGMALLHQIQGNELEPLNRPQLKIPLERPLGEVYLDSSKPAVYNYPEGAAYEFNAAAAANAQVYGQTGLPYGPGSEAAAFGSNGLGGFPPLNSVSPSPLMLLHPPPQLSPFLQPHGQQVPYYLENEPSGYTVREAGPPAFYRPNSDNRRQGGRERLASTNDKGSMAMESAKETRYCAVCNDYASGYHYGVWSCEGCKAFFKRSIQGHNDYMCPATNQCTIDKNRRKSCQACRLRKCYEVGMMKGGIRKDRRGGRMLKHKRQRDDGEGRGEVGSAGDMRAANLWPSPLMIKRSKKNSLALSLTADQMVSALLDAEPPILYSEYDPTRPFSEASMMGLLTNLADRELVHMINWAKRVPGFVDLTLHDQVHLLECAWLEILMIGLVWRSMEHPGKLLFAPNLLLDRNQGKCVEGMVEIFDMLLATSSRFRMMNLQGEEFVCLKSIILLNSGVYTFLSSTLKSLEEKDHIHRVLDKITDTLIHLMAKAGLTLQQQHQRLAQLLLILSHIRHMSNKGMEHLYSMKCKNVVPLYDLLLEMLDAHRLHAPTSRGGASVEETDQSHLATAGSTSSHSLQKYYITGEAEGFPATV

Turning to `CCN(C(=O)c1ccc(N2CCN(CCCCCOc3ccc([C@@H]4c5ccc(O)cc5CC[C@@H]4c4ccccc4)cc3)CC2)cc1OC)C1CCC(=O)NC1=O` (mixture of isomers) [PROTAC-92, rac-N-(2,6-dioxopiperidin-3-yl)-N-ethyl-4-(4-(5-(4-((1R,2S)-6-hydroxy-2-phenyl-1,2,3,4-tetrahydronaphthalen-1-yl)phenoxy)pentyl)piperazin-1-yl)-2-methoxybenzamide], the maximal degradation (Dmax) in experiment [1] is ≤ 50%.
Turning to `O=C1CCC(N2CC(Oc3cccc(C4CCN(CCCCOc5ccc([C@@H]6c7ccc(O)cc7CC[C@@H]6c6ccccc6)cc5)CC4)c3)=CC2=O)C(=O)N1` (mixture of isomers) [PROTAC-104, rac-3-(4-(3-(1-(4-(4-((1R,2S)-6-hydroxy-2-phenyl-1,2,3,4-tetrahydronaphthalen-1-yl)phenoxy)butyl)piperidin-4-yl)phenoxy)-2-oxo-2,5-dihydro-1H-pyrrol-1-yl)piperidine-2,6-dione], the 50% inhibitory concentration (IC50) in experiment [2] is 1 to 10 nM. Also, the Dmax in experiment [1] is ≤ 50%.
The like results for `O=C1CCC(N2CC(Oc3cccc(C4CCN(CCCOc5ccc([C@H]6c7ccc(O)cc7CC[C@H]6c6ccccc6)cc5)CC4)c3)=CC2=O)C(=O)N1` (mixture of isomers) [PROTAC-105, rac-3-(4-(3-(1-(3-(4-((1R,2S)-6-hydroxy-2-phenyl-1,2,3,4-tetrahydronaphthalen-1-yl)phenoxy)propyl)piperidin-4-yl)phenoxy)-2-oxo-2,5-dihydro-1H-pyrrol-1-yl)piperidine-2,6-dione] were, in that order, 1 to 10 nM and ≤ 50%.
The like results for `O=C1CCC(N2CC(Oc3cccc(C4CCN(CCCCOc5ccc([C@H]6c7ccc(O)cc7CC[C@H]6c6ccccc6)cc5)CC4)c3)=CC2=O)C(=O)N1` (mixture of isomers) [PROTAC-109, rac-3-(4-(3-(1-(4-(4-((1R,2S)-6-hydroxy-2-phenyl-1,2,3,4-tetrahydronaphthalen-1-yl)phenoxy)butyl)piperidin-4-yl)phenoxy)-2-oxo-2,5-dihydro-1H-pyrrol-1-yl)piperidine-2,6-dione] were, in that order, ≥ 100 nM and ≤ 50%.
For the molecule `O=C1CCC(n2cc(-c3ccc(N4CCN(CCCOc5ccc([C@@H]6c7ccc(O)cc7CC[C@@H]6c6ccccc6)cc5)CC4)nc3)cn2)C(=O)N1` (mixture of isomers) [PROTAC-111, rac-3-(4-(6-(4-(3-(4-((1R,2S)-6-hydroxy-2-phenyl-1,2,3,4-tetrahydronaphthalen-1-yl)phenoxy)propyl)piperazin-1-yl)pyridin-3-yl)-1H-pyrazol-1-yl) piperidine-2,6-dione], the IC50 in experiment [2] is < 1 nM. Further, in experiment [3] (5 day incubation), the greatest degradation seen (Dmax) was ≤ 50%.
The like results for `O=C1CCC(N2CC(c3ccc(N4CCN(CC5CCN(c6ccc([C@@H]7c8ccc(O)cc8CC[C@@H]7c7ccccc7)cc6)CC5)CC4)cc3)=CC2=O)C(=O)N1` (stereo partly drawn) [PROTAC-89, 3-[3-[4-[4-[[1-[4-[(1R,2S)-6-hydroxy-2-phenyl-tetralin-1-yl]phenyl]-4-piperidyl]methyl]piperazin-1-yl]phenyl]-5-oxo-2H-pyrrol-1-yl]piperidine-2,6-dione] were, in that order, 1 to 10 nM and > 75%.
The like results for `O=C1CCC(n2ncc(N3CCN(CC4CCN(c5ccc([C@@H]6c7ccc(O)cc7CC[C@@H]6c6ccccc6)cc5)CC4)CC3)cc2=O)C(=O)N1` (stereo partly drawn) [PROTAC-102, 3-[4-[4-[[1-[4-[(1R, 2 S)-6-hydroxy-2-phenyl-tetralin-1-yl]phenyl]-4-piperidyl]methyl]piperazin-1-yl]-6-oxo-pyridazin-1-yl]piperidine-2,6-dione] were, in that order, 1 to 10 nM and > 75%.
As for `O=C1CCC(n2ncc(Oc3ccc(O[C@@H]4CCN(CCOc5ccc([C@@H]6c7ccc(O)cc7CC[C@@H]6c6ccc(F)cc6)cc5)C4)nc3)cc2=O)C(=O)N1` (stereo partly drawn) [PROTAC-103, 3-(4-((6-(((R)-1-(2-(4-((1R,2S)-2-(4-fluorophenyl)-6-hydroxy-1,2,3,4-tetrahydronaphthalen-1-yl)phenoxy)ethyl)pyrrolidin-3-yl)oxy)pyridin-3-yl)oxy)-6-oxopyridazin-1(6H)-yl)piperidine-2,6-dione], the IC50 in experiment [2] is < 1 nM. Moreover, the greatest degradation seen (Dmax) in experiment [3] (3 day incubation) is ≤ 50%.
As to `O=C1CCC(N2CC(Oc3cccc(C4CCN(CCCOc5ccc([C@@H]6c7ccc(O)cc7CC[C@@H]6c6ccccc6)cc5)CC4)c3)=CC2=O)C(=O)N1` (stereo partly drawn) [PROTAC-106, 3-(4-(3-(1-(3-(4-((1R,2 S)-6-hydroxy-2-phenyl-1,2,3,4-tetrahydronaphthalen-1-yl)phenoxy)propyl)piperidin-4-yl)phenoxy)-2-oxo-2,5-dihydro-1H-pyrrol-1-yl)piperidine-2,6-dione], the IC50 in experiment [2] is < 1 nM. In experiment [1], the Dmax is ≤ 50%.
On to `Cc1nc2c(NCCN3CCN(CCOc4ccc(Oc5c(-c6ccc(Br)cc6)sc6cc(O)ccc56)cc4)CC3)cccc2c(=O)n1C1CCC(=O)NC1=O` (stereo not drawn) [PROTAC-107], for which, in experiment [2], the IC50 is 10 to 100 nM. For the same molecule, in experiment [3] (3 day incubation), the greatest degradation seen (Dmax) is ≤ 50%.
The like results for `Cc1nc2c(OCCN3CCN(CCOc4ccc(Oc5c(-c6ccc(Br)cc6)sc6cc(O)ccc56)cc4)CC3)cccc2c(=O)n1C1CCC(=O)NC1=O` (stereo not drawn) [PROTAC-108, 3-(8-(2-(4-(2-(4-((2-(4-bromophenyl)-6-hydroxybenzo[b]thiophen-3-yl)oxy)phenoxy)ethyl)piperazin-1-yl)ethoxy)-2-methyl-4-oxoquinazolin-3(4H)-yl)piperidine-2,6-dione] were, in that order, 1 to 10 nM and ≤ 50%.

Values taken from patent US12441708B2, “Cereblon ligands and bifunctional compounds comprising the same” (Arvinas Operations, Inc., priority 2017, dated 2025).
